Reference: patent US11203598B2, “Compounds for repressing cancer cell growth” (Institute For Cancer Research, priority 2018, dated 2021)

Key:
[1] = system: Noxa in 8226 bortezomib resistant multiple myeloma cell line; assay: Western blot of Noxa; assay type: cell-based; details: 25 μM Analog 4, 100 μM Analog 11
Protocol: Referring to FIG. 20 (panel C), 1×10^6 cells/well were seeded in a 12-well plate. 8226 parental and resistant multiple myeloma cell lines were treated with 100 μM CB002, 25 μM Analog 4, or 100 μM Analog 11.

[2] = molecular target: T1, endogenous R175H p53 in RXF393 renal cancer cells (Homo sapiens, UniProt P04637, R175H); assay: Western blot of mutant p53; assay type: cell-based
T1 construct: RXF393 renal cancer cells that endogenously express R175H p53; endogenous in cells; host or cells: RXF393 renal cancer cells
Protocol: After treatment, cells were harvested by trypsinization, washed with PBS, and lysed with RIPA buffer (Sigma-Aldrich) for 30 minutes to 1 hour at 4° C. Protein lysates were spun down and supernatant was collected. Protein quantification was performed using a Pierce™ BCA Protein Assay Kit (Thermo Fisher Scientific). 1×NuPAGE® LDS sample buffer (Thermo Fisher Scientific) and 2-Mercaptoethanol as the reducing agent (Sigma-Aldrich) were added to protein lysates, followed by boiling for 15 minutes at 95° C. Equal total protein amounts samples were loaded into NuPAGE™ Novex™ 4-12% Bis-Tris Protein Gels (1.5 mm, Thermo Fisher Scientific) and gel eletrophoresis was performed with NuPAGE™ MES SDS Running Buffer. Proteins were transferred onto an Immobilon-P membrane (PVDF, EMD Millipore) using a Bio-Rad system with a 10% Tris-Glycine and 10% methanol transfer buffer diluted in distilled and deionized water. After transfer, membranes were blocked with 10% milk in TBST solution and then incubated overnight with primary antibody, washed with TBST and incubated with secondary antibody for 1 hour. Incubations were performed in 5% milk in TBST solution. Signal was detected by using a chemiluminescent detection kit, followed by autoradiography. […]

[3] = molecular target: T2, R175H mutant p53 in HCT116 R175H p53 cells (Homo sapiens, UniProt P04637, R175H); assay: cycloheximide chase assay; assay type: cell-based; details: 100 μM, 24 hours, then cycloheximide
T2 construct: V5 (only from the vector name pLenti6/V5); host or cells: HCT116 p53-/- cells, lentivirus infection, blasticidin-selected pooled clones
Protocol: (§1) As mutant p53 can acquire a gain-of-function activity, targeting mutant p53 for degradation has been explored as a therapeutic strategy. To investigate the capability of CB002 to impact on mutant p53 protein expression, Western blot analysis was used. […] To confirm these findings, a cycloheximide chase assay was performed. Cells were treated with vehicle control or CB002 for a period of 24 hours. Subsequently, 100 μg/mL cycloheximide was added to the wells and protein lysates were collected at different time points between 0-10 hours. […] Referring to FIG. 6, experiments with SW480 cells (Panels A and B) and analysis of DLD-1 colorectal cancer cells (Panel C) are shown. Cells were treated for a 24 hour period with DMSO, CB002 or positive control followed by 100 μg/mL of cycloheximide addition, and protein stability was evaluated in a time course ranging from 0-10 hours. Histone deacetylase inhibitor, SAHA and Hsp90 inhibitor Geldanamycin (1 μM GA) were used as positive controls.
Referring to FIG. 7, CB002 reduced the protein expression of the exogenous R175H mutant in HCT116 p53-null cells and not the HCT116 wild-type p53 cells (Panel A). HCT116 R175H p53 cells were treated for 24 hours with DMSO or CB002 followed by 100 μg/mL cycloheximide addition. Protein stability was evaluated from 0-10 hours (Panel B). […]

[4] = molecular target: T3, mutant p53 in DLD-1 cells (Homo sapiens, UniProt P04637, S241F); assay: cycloheximide chase assay; assay type: cell-based; details: 24 hours treatment, then 100 μg/mL cycloheximide, 0-10 hours
T3 construct: endogenous in cells; host or cells: DLD-1 colorectal cancer cells
Protocol: as §1

[5] = molecular target: T4, R175H p53 mutant in HCT116 p53 R175H cells (Homo sapiens, UniProt P04637, R175H); assay: Western blot of mutant p53; assay type: cell-based
T4 construct: V5 (only from the vector name pLenti6/V5); host or cells: HCT116 p53-/- cells, lentivirus infection, blasticidin-selected pooled clones
Protocol: HCT116 p53^−/− cells (previously obtained from the Vogelstein Laboratory, Johns Hopkins University) were infected with a lentivirus vector containing the p53 R175H mutant (pLenti6/V5-p53_R175H, Addgene). Cells were selected with blasticidin (8 μg/mL) containing media cultured for 10 days. Blasticidin-resistant clones (pooled clones) were screened for expression of the p53 R175H mutation by Western blot analysis with p53 DO-1 antibody.
After treatment, cells were harvested by trypsinization, washed with PBS, and lysed with RIPA buffer (Sigma-Aldrich) for 30 minutes to 1 hour at 4° C. Protein lysates were spun down and supernatant was collected. Protein quantification was performed using a Pierce™ BCA Protein Assay Kit (Thermo Fisher Scientific). 1×NuPAGE® LDS sample buffer (Thermo Fisher Scientific) and 2-Mercaptoethanol as the reducing agent (Sigma-Aldrich) were added to protein lysates, followed by boiling for 15 minutes at 95° C. Equal total protein amounts samples were loaded into NuPAGE™ Novex™ 4-12% Bis-Tris Protein Gels (1.5 mm, Thermo Fisher Scientific) and gel eletrophoresis was performed with NuPAGE™ MES SDS Running Buffer. Proteins were transferred onto an Immobilon-P membrane (PVDF, EMD Millipore) using a Bio-Rad system with a 10% Tris-Glycine and 10% methanol transfer buffer diluted in distilled and deionized water. After transfer, membranes were blocked with 10% milk in TBST solution and then incubated overnight with primary antibody, washed with TBST and incubated with secondary antibody for 1 hour. Incubations were performed in 5% milk in TBST solution. Signal was detected by using a chemiluminescent detection kit, followed by autoradiography. The following antibodies were used: p53 (DO-1, 1:1000, Santa Cruz), p73 (1:1000, Bethyl Laboratories), p21 and NOXA (1:250, EMD Millipore), DR5, FADD, cleaved caspase 3, cleaved caspase 8, cleaved PARP, and LC3B (1:1000, Cell Signaling), and β-actin (1:10000, Sigma).

[6] = system: p53 reporter (PG13-luc) in DLD-1 cells; assay: luciferase-based p53-reporter activity assay; assay type: cell-based, human; details: 3 and 24 hours
Protocol: High-throughput screening was performed using a non-invasive bioluminescence imaging in human colorectal cancer cell lines that stably express a p53-regulated luciferase reporter. Cells were seeded in 96-well plates (Greiner Bio-One) at a density of 1×10^4 cells per well. p53 transcriptional activity was imaged using an IVIS imaging system for a period of 3-4 hours.
Cell-based screening of p53 transcriptional activity for small molecule CB002 was accomplished using noninvasive bioluminescence imaging in human colorectal cancer cell lines SW480, DLD-1, DLD-1 p73^−/−, HCT116, and HCT116 p53^−/−. These cell lines stably express a p53 reporter, PG13-luc. Cells were seeded in opaque 96-well culture at a density of 5×10^4 cells/well. The cells were treated with CB002 at ranging doses with DMSO controls. Bioluminescence in cells was imaged for p53 transcriptional activity at 2 hours and 24 hours using IVIS imaging system (Xenogen).
In order to identify small molecules that could restore the p53 signaling pathway, 50,000 small molecules from the Chembridge Library were screened using a firefly luciferase human p53 reporter assay system. SW480 colorectal cancer cells that stably express the human p53 reporter were treated with compounds at various concentrations from 0-100 μM for 2 and 24 hours. […] To further validate the effects of CB002, the screening was expanded by testing effects on p53-dependent reporter activity in DLD-1, wild-type HCT116, and p53-null colorectal cancer HCT116 cell lines. […] Referring to FIG. 1, representative images of luciferase-based p53-reporter activity assays are shown at 3 hours (Panel A). Quantification of the luciferase-based p53-reporter activity assays in three different cell lines incubated from 3-24 hours with CB002 are shown (Panels B-D). p53-reporter activity assays are shown at 2 hours for HCT116 p53-null cells (Panel E).

| Compound | Noxa expression [1] | mutant p53 degradation, with Ganetespib ([2]; 96 μM CB002 and/or 0.1 μM Ganetespib, 16 hours) | R175H p53 mutant expression ([2]; 100 and 150 μM, 16 and 24 hours) | stability of mutant p53 [3] | mutant p53 stability [4] | R175H mutant p53 protein expression ([5]; 50 and 100 μM, 16 and 24 hours, versus DMSO) | R175H p53 mutant protein expression ([5]; 50 or 100 μM with MDM2 inhibitor Nutlin-3A, 24 hours) | R175H mutant p53 protein expression ([5]; co-treatment with chloroquine, 16 and 24 hours) | R175H mutant p53 protein expression ([5]; with proteasome inhibitor MG132 (5 and 10 μM), 24 hours) | p53 reporter activity [6] |
| --- | --- | --- | --- | --- | --- | --- | --- | --- | --- | --- |
| Cn1c(=O)c2c(nc(Nc3ccccc3)n2C)n(C)c1=O [Analog 11, 8-anilino-1,3,7-trimethyl-3,7-dihydro-1Hpurine-2,6-dione] | able to induce Noxa expression |  |  |  |  |  |  |  |  |  |
| Cn1c(=O)c2[nH]c(Nc3ccccc3)nc2n(C)c1=O [CB002, 8-anilino-1,3-dimethyl-3,7-dihydro-1H-purine-2,6-dione] |  | enhanced CB002-mediated mutant p53 degradation | decrease R175H p53 mutant expression | decreased the stability of mutant p53 | did not affect mutant p53 stability | decrease in mutant p53 protein expression | still resulted in reduction of R175H p53 mutant protein expression | did not rescue R175H mutant p53 protein expression | appeared to rescue R175H mutant p53 protein expression | induced in a dose-dependent manner |
